Measured values from patent publication US9833497B2, “Human originated EGF domain proteins and use of the same” (CHENGDU SOURCEBIO LIMITED-LIABILITY COMPANY, priority 2013, dated 2017).

Columns and labels:
Type in all cases: cell-based
[1] = system: E. coli DH5α; assay: Antibacterial activity: MIC and growth curve against E. coli DH5α in 96-well plate; conditions: minimal inhibitory concentration against E. coli DH5α; 96-well plate, 5×10^5 CFU/mL, 37° C., judged after 8 h
In short: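 Log-phase bacteria (OD600 ~0.5) resuspended in LB at 5×10^5 CFU/mL, exposed to recombinant protein at 50, 25, 12.5 μg/mL final in triplicate, 37 °C shaking at 175 rpm. OD600 read every 30 min; MIC is lowest concentration showing no growth.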

[2] = system: E. coli BL21; assay: MIC against Gram-negative bacteria: E. coli BL21
In short: (§1)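 Bacteria grown in LB at 37° C with shaking to McFarland 0.5, pelleted and resuspended in fresh LB, then seeded at 5×10^5 CFU/mL per well. Purified recombinant human EGF domain proteins were two-fold serially diluted in triplicate and plates shaken at 37° C, 175 rpm. MIC is the lowest protein concentration with no bacterial growth.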

[3] = system: Pseudomonas aeruginosa; assay: MIC against Gram-negative bacteria: Pseudomonas aeruginosa; conditions: for MIC (μg/mL) P. aeruginosa / MIC: P. aeruginosa
In short: as §1

[4] = system: Klebsiella pneumonia; assay: MIC against Gram-negative bacteria: Klebsiella pneumonia; conditions: for MIC (μg/mL) K. pneumonia / MIC: K. pneumonia
In short: as §1

[5] = system: Enterobacter cloacae; assay: MIC against Gram-negative bacteria: Enterobacter cloacae; conditions: for MIC (μg/mL) E. cloacae / MIC: E. cloacae
In short: as §1

[6] = system: Aeromonas hydrophila; assay: MIC against Gram-negative bacteria: Aeromonas hydrophila; conditions: for MIC (μg/mL) A. hydrophila / MIC: A. hydrophila
In short: as §1

[7] = system: Citrobacter diversus; assay: MIC against Gram-negative bacteria: Citrobacter diversus; conditions: for MIC (μg/mL) C. diversus / MIC: C. diversus
In short: as §1

[8] = system: Moraxella catarrhalis; assay: MIC against Gram-negative bacteria: Moraxella catarrhalis; conditions: for MIC (μg/mL) M. catarrhalis / MIC: M. catarrhalis
In short: as §1

[9] = system: Proteus mirabilis; assay: MIC against Gram-negative bacteria: Proteus mirabilis; conditions: for MIC (μg/mL) P. mirabilis / MIC: P. mirabilis
In short: as §1

[10] = system: Proteus vulgaris; assay: MIC against Gram-negative bacteria: Proteus vulgaris; conditions: for MIC (μg/mL) P. vulgaris / MIC: P. vulgaris
In short: as §1

[11] = system: Serratia marcescens; assay: MIC against Gram-negative bacteria: Serratia marcescens; conditions: for MIC (μg/mL) S. marcescens / MIC: S. marcescens
In short: as §1

[12] = E. coli BL21, 10 h cultivation at 37° C., 5×10^5 CFU/mL
[13] = 10 h cultivation at 37° C., 5×10^5 CFU/mL
[14] = E. coli BL21, 10 h cultivation at 37° C.
[15] = 96-well plate, 5×10^5 CFU/mL, 37° C., 10 h

PRT799 (FHACSCHNGASCSAEDGACHCTPGWTGLFCT; listed as Homo sapiens)
50 µg/mL: MIC (μg/mL) P. vulgaris [10, 13]
5 µg/mL: MIC (μg/mL) E. cloacae [5, 13]
25 mg/L: MIC [1]
25 µg/mL: MIC (μg/mL) S. marcescens [11, 13]
12.5 µg/mL: MIC (μg/mL) E. coli BL21 [2, 12] | MIC (μg/mL) P. aeruginosa [3, 13] | MIC (μg/mL) K. pneumonia [4, 13] | MIC (μg/mL) A. hydrophila [6, 13] | MIC (μg/mL) C. diversus [7, 13] | MIC (μg/mL) M. catarrhalis [8, 13] | MIC (μg/mL) P. mirabilis [9, 13]

PRT983 (VARSCRELQCPVGVPCQQTPRGPRCACPPGLSGPSCR; listed as Homo sapiens)
12.5 mg/L: MIC [2, 14] | MIC ([5]; 10 h cultivation at 37° C.) | MIC ([8]; 10 h cultivation at 37° C.) | MIC ([10]; 10 h cultivation at 37° C.)
25 mg/L: MIC [1] | MIC ([3]; 10 h cultivation at 37° C.) | MIC ([6]; 10 h cultivation at 37° C.) | MIC ([11]; 10 h cultivation at 37° C.)
50 mg/L: MIC ([4]; 10 h cultivation at 37° C.) | MIC ([7]; 10 h cultivation at 37° C.) | MIC ([9]; 10 h cultivation at 37° C.)

PRT552 (CACGPAAEGSECHPQSGQCHCRPGTMGPQCRECAPGYWGLPEQGCRR; listed as Homo sapiens)
25 mg/L: MIC [1] | MIC against M. catarrhalis [8, 15] | MIC against P. vulgaris [10, 15]
50 mg/L: MIC against P. aeruginosa [3, 15] | MIC against E. cloacae [5, 15] | MIC against C. diversus [7, 15]
100 mg/L: MIC against E. coli BL21 [2, 15]
12.5 mg/L: MIC against K. pneumonia [4, 15] | MIC against A. hydrophila [6, 15] | MIC against P. mirabilis [9, 15] | MIC against S. marcescens [11, 15]

PRT527 (CPCPHTNSFATGCVVNGGDVRCSCKAGYTGTQCERCAPGYFGNPQKFGGSCQP; listed as Homo sapiens)
25 mg/L: MIC against E. cloacae [5, 15] | MIC against C. diversus [7, 15] | MIC against P. mirabilis [9, 15] | MIC against S. marcescens [11, 15]
50 mg/L: MIC [1] | MIC against P. aeruginosa [3, 15] | MIC against A. hydrophila [6, 15] | MIC against P. vulgaris [10, 15]
12.5 mg/L: MIC against E. coli BL21 [2, 15] | MIC against K. pneumonia [4, 15] | MIC against M. catarrhalis [8, 15]

PRT1204 (DIDECGTGRHSCANDTICFNLDGGYDCRCPHGKNCT; listed as Homo sapiens)
50 mg/L: MIC against P. aeruginosa ([3]; Pseudomonas aeruginosa, 96-well plate, 5×10^5 CFU/mL, 37° C., 10 h) | MIC against A. hydrophila ([6]; Aeromonas hydrophila, 96-well plate, 5×10^5 CFU/mL, 37° C., 10 h) | MIC against P. vulgaris ([10]; Proteus vulgaris, 96-well plate, 5×10^5 CFU/mL, 37° C., 10 h)
12.5 mg/L: MIC against E. cloacae ([5]; Enterobacter cloacae, 96-well plate, 5×10^5 CFU/mL, 37° C., 10 h) | MIC against P. mirabilis ([9]; Proteus mirabilis, 96-well plate, 5×10^5 CFU/mL, 37° C., 10 h)
25 mg/L: MIC against E. coli BL21 ([2]; E. coli BL21, 96-well plate, 5×10^5 CFU/mL, 37° C., 10 h) | MIC against K. pneumonia ([4]; Klebsiella pneumonia, 96-well plate, 5×10^5 CFU/mL, 37° C., 10 h) | MIC against C. diversus ([7]; Citrobacter diversus, 96-well plate, 5×10^5 CFU/mL, 37° C., 10 h) | MIC against M. catarrhalis ([8]; Moraxella catarrhalis, 96-well plate, 5×10^5 CFU/mL, 37° C., 10 h) | MIC against S. marcescens ([11]; Serratia marcescens, 96-well plate, 5×10^5 CFU/mL, 37° C., 10 h)
100 mg/L: MIC [1]

PRT638 (DVNECELLSGVCGEAFCENVEGSFLCVCADENQEYSPMTGQCR; listed as Homo sapiens)
25 mg/L: MIC [1] | MIC E. cloacae [5, 15] | MIC C. diversus [7, 15]
50 mg/L: MIC P. aeruginosa [3, 15] | MIC A. hydrophila [6, 15] | MIC P. mirabilis [9, 15] | MIC S. marcescens [11, 15]
12.5 mg/L: MIC E. coli BL21 [2, 15] | MIC K. pneumonia [4, 15] | MIC M. catarrhalis [8, 15] | MIC P. vulgaris [10, 15]

PRT1358 (SQLACPSDCNDQGKCVNGVCICFEGYAGADCS; listed as Homo sapiens)
12.5 mg/L: MIC against E. coli BL21 ([2]; E. coli BL21, 5×10^5 CFU/mL, 10 h cultivation at 37° C.) | MIC against K. pneumonia ([4]; Klebsiella pneumonia, 5×10^5 CFU/mL, 10 h cultivation at 37° C.) | MIC against E. cloacae ([5]; Enterobacter cloacae, 5×10^5 CFU/mL, 10 h cultivation at 37° C.) | MIC against C. diversus ([7]; Citrobacter diversus, 5×10^5 CFU/mL, 10 h cultivation at 37° C.) | MIC against P. mirabilis ([9]; Proteus mirabilis, 5×10^5 CFU/mL, 10 h cultivation at 37° C.) | MIC against S. marcescens ([11]; Serratia marcescens, 5×10^5 CFU/mL, 10 h cultivation at 37° C.)
50 mg/L: MIC [1] | MIC against P. aeruginosa ([3]; Pseudomonas aeruginosa, 5×10^5 CFU/mL, 10 h cultivation at 37° C.)
25 mg/L: MIC against A. hydrophila ([6]; Aeromonas hydrophila, 5×10^5 CFU/mL, 10 h cultivation at 37° C.) | MIC against M. catarrhalis ([8]; Moraxella catarrhalis, 5×10^5 CFU/mL, 10 h cultivation at 37° C.) | MIC against P. vulgaris ([10]; Proteus vulgaris, 5×10^5 CFU/mL, 10 h cultivation at 37° C.)

PRT752 (TAHMCSTLEHNCAHFCINIPGSYVCRCKQGYILNSDQTTCR; listed as Homo sapiens)
50 µg/mL: MIC (μg/mL) A. hydrophila [6, 13] | MIC (μg/mL) P. mirabilis [9, 13]
12.5 µg/mL: MIC (μg/mL) P. aeruginosa [3, 13] | MIC (μg/mL) K. pneumonia [4, 13] | MIC (μg/mL) E. cloacae [5, 13] | MIC (μg/mL) C. diversus [7, 13] | MIC (μg/mL) S. marcescens [11, 13]
25 µg/mL: MIC (μg/mL) E. coli BL21 [2, 12] | MIC (μg/mL) M. catarrhalis [8, 13] | MIC (μg/mL) P. vulgaris [10, 13]
50 mg/L: MIC [1]

PRT559 (CHCSAEGSLHAACDPRSGQCSCRPRVTGLRCDTCVPGAYNFPYCEA; listed as Homo sapiens)
50 mg/L: MIC against E. coli BL21 [2, 15] | MIC against A. hydrophila [6, 15] | MIC against P. vulgaris [10, 15]
12.5 mg/L: MIC against K. pneumonia [4, 15] | MIC against M. catarrhalis [8, 15]
25 mg/L: MIC [1] | MIC against P. aeruginosa [3, 15] | MIC against E. cloacae [5, 15] | MIC against C. diversus [7, 15] | MIC against P. mirabilis [9, 15] | MIC against S. marcescens [11, 15]

PRT1037 (DCSRPCPPGRQKSPRDPCQCVCHGSAVTTQDCC; listed as Homo sapiens)
12.5 mg/L: MIC [1] | MIC ([4]; 10 h cultivation at 37° C.) | MIC ([9]; 10 h cultivation at 37° C.)
25 mg/L: MIC ([5]; 10 h cultivation at 37° C.) | MIC ([6]; 10 h cultivation at 37° C.) | MIC ([8]; 10 h cultivation at 37° C.)
50 mg/L: MIC [2, 14] | MIC ([3]; 10 h cultivation at 37° C.) | MIC ([7]; 10 h cultivation at 37° C.) | MIC ([10]; 10 h cultivation at 37° C.) | MIC ([11]; 10 h cultivation at 37° C.)
